In patent US10167262B2, “Herbicidal substituted 3-arylpyrazoles” (FMC CORPORATION, priority 2014, dated 2019):

What was measured:
Format in all cases: in vivo
[1] = system: morningglory (Ipomoea coccinea); assay: Test C pre-/postemergence greenhouse test, plant response rating 0-100; conditions: Postemergence; for Plant response rating, Morningglory: scale 0 to 100
How it was run: (§1)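 Visual rating vs controls after 13–15 d greenhouse; 0 = no effect, 100 = complete control. Pre: seeds in loam/sand, treated at planting. Post: seedlings 2–18 cm (1–4 leaf) in peat-based mix. Compounds in surfactant-containing non-phytotoxic solvent.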

[2] = system: blackgrass (Alopecurus myosuroides); assay: as above; conditions: Postemergence; for Plant response rating, Blackgrass: scale 0 to 100
How it was run: as §1

[3] = system: ragweed (common ragweed, Ambrosia elatior); assay: as above; conditions: Postemergence; for Plant response rating, Ragweed: scale 0 to 100
How it was run: as §1

[4] = system: velvetleaf (Abutilon theophrasti); assay: as above; conditions: Postemergence; for Plant response rating, Velvetleaf: scale 0 to 100
How it was run: as §1

[5] = system: large (Lg) crabgrass (Digitaria sanguinalis); assay: as above; conditions: Postemergence; for Plant response rating, Crabgrass, Large: scale 0 to 100
How it was run: as §1

[6] = system: giant foxtail (Setaria faberii); assay: Test A pre-/postemergence greenhouse herbicide test, visual injury rating 0-100
How it was run: (§2)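 Visual injury scored on a 0–100 scale versus untreated controls roughly 10 days after treatment in greenhouse. Treatments were preemergence soil sprays plus postemergence sprays to plants 2–10 cm tall at one- to two-leaf stage, in a surfactant-containing solvent formulation.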

corn (Zea mays) = assay: as above
How it was run: as §2

[7] = system: wheat (Triticum aestivum); assay: as above
How it was run: as §2

[8] = system: pigweed (Amaranthus retroflexus); assay: as above
How it was run: as §2

[9] = system: barnyardgrass (Echinochloa crus-galli); assay: as above
How it was run: as §2

[10] = system: morningglory (Ipomoea spp.); assay: as above
How it was run: as §2

[11] = system: velvetleaf (Abutilon theophrasti); assay: as above
How it was run: as §2

[12] = system: large (Lg) crabgrass (Digitaria sanguinalis); assay: as above
How it was run: as §2

SMILES: Fc1ccc(NN=C(c2ccccc2)c2c[nH]nc2-c2cc(Cl)cc(Cl)c2)cc1 [Compound 35]
- Plant response rating (0 to 100), Morningglory ([1]; 62 g ai/ha): 0
- Plant response rating (0 to 100), Morningglory ([1]; 125 g ai/ha): 0
- Plant response rating, Morningglory ([1]; 250 g ai/ha): 5
- Plant response rating, Morningglory ([1]; 500 g ai/ha): 5
- Plant response rating (0 to 100), Blackgrass ([2]; 62 g ai/ha): 0
- Plant response rating (0 to 100), Blackgrass ([2]; 125 g ai/ha): 0
- Plant response rating, Blackgrass ([2]; 250 g ai/ha): 0
- Plant response rating, Blackgrass ([2]; 500 g ai/ha): 0
- Plant response rating (0 to 100), Ragweed ([3]; 62 g ai/ha): 15
- Plant response rating (0 to 100), Ragweed ([3]; 125 g ai/ha): 40
- Plant response rating, Ragweed ([3]; 250 g ai/ha): 50
- Plant response rating, Ragweed ([3]; 500 g ai/ha): 55
- Plant response rating (0 to 100), Velvetleaf ([4]; 62 g ai/ha): 60
- Plant response rating (0 to 100), Velvetleaf ([4]; 125 g ai/ha): 65
- Plant response rating, Velvetleaf ([4]; 250 g ai/ha): 70
- Plant response rating, Velvetleaf ([4]; 500 g ai/ha): 70
- Plant response rating (0 to 100), Crabgrass, Large ([5]; 62 g ai/ha): 5
- Plant response rating (0 to 100), Crabgrass, Large ([5]; 125 g ai/ha): 5
- Plant response rating, Crabgrass, Large ([5]; 250 g ai/ha): 5
- Plant response rating, Crabgrass, Large ([5]; 500 g ai/ha): 5
- Plant response rating (0 to 100 scale), Foxtail, Giant ([6]; Postemergence, 1000 g ai/ha): 0
- Plant response rating (0 to 100 scale), Foxtail, Giant ([6]; Preemergence, 1000 g ai/ha): 0
- Plant response rating (0 to 100 scale), Corn (corn (Zea mays); Postemergence, 1000 g ai/ha): 0
- Plant response rating (0 to 100 scale), Corn (corn (Zea mays); Preemergence, 1000 g ai/ha): 0
- Plant response rating (0 to 100 scale), Wheat ([7]; Postemergence, 1000 g ai/ha): 0
- Plant response rating (0 to 100 scale), Wheat ([7]; Preemergence, 1000 g ai/ha): 0
- Plant response rating (0 to 100 scale), Pigweed ([8]; Postemergence, 1000 g ai/ha): 90
- Plant response rating (0 to 100 scale), Pigweed ([8]; Preemergence, 1000 g ai/ha): 100
- Plant response rating (0 to 100 scale), Barnyardgrass ([9]; Postemergence, 1000 g ai/ha): 0
- Plant response rating (0 to 100 scale), Barnyardgrass ([9]; Preemergence, 1000 g ai/ha): 0
- Plant response rating (0 to 100 scale), Morningglory ([10]; Postemergence, 1000 g ai/ha): 0
- Plant response rating (0 to 100 scale), Morningglory ([10]; Preemergence, 1000 g ai/ha): 0
- Plant response rating (0 to 100 scale), Velvetleaf ([11]; Postemergence, 1000 g ai/ha): 90
- Plant response rating (0 to 100 scale), Velvetleaf ([11]; Preemergence, 1000 g ai/ha): 100
- Plant response rating (0 to 100 scale), Crabgrass, Large ([12]; Postemergence, 1000 g ai/ha): 0
- Plant response rating (0 to 100 scale), Crabgrass, Large ([12]; Preemergence, 1000 g ai/ha): 0

SMILES: CCn1cc(C(=NN2CCCC2)c2ccccc2)c(-c2cc(Cl)cc(Cl)c2)n1 [Compound 37]
- Plant response rating (0 to 100), Morningglory ([1]; 62 g ai/ha): 0
- Plant response rating (0 to 100), Morningglory ([1]; 125 g ai/ha): 0
- Plant response rating, Morningglory ([1]; 250 g ai/ha): 0
- Plant response rating (0 to 100), Blackgrass ([2]; 31 g ai/ha): 0
- Plant response rating (0 to 100), Blackgrass ([2]; 62 g ai/ha): 0
- Plant response rating (0 to 100), Blackgrass ([2]; 125 g ai/ha): 0
- Plant response rating, Blackgrass ([2]; 250 g ai/ha): 0
- Plant response rating (0 to 100), Ragweed ([3]; 62 g ai/ha): 5
- Plant response rating (0 to 100), Ragweed ([3]; 125 g ai/ha): 5
- Plant response rating, Ragweed ([3]; 250 g ai/ha): 20
- Plant response rating (0 to 100), Velvetleaf ([4]; 62 g ai/ha): 75
- Plant response rating (0 to 100), Velvetleaf ([4]; 125 g ai/ha): 80
- Plant response rating, Velvetleaf ([4]; 250 g ai/ha): 98
- Plant response rating (0 to 100), Crabgrass, Large ([5]; 31 g ai/ha): 10
- Plant response rating (0 to 100), Crabgrass, Large ([5]; 62 g ai/ha): 10
- Plant response rating (0 to 100), Crabgrass, Large ([5]; 125 g ai/ha): 10
- Plant response rating, Crabgrass, Large ([5]; 250 g ai/ha): 10
- Plant response rating (0 to 100 scale), Foxtail, Giant ([6]; Postemergence, 125 g ai/ha): 0
- Plant response rating (0 to 100 scale), Foxtail, Giant ([6]; Postemergence, 500 g ai/ha): 0
- Foxtail, Giant plant response rating (0 = no effect, 100 = complete control) ([6]; Preemergence, 125 g ai/ha): 0
- Plant response rating (0 to 100 scale), Foxtail, Giant ([6]; Preemergence, 500 g ai/ha): 0
- Plant response rating (0 to 100 scale), Corn (corn (Zea mays); Postemergence, 125 g ai/ha): 0
- Plant response rating (0 to 100 scale), Corn (corn (Zea mays); Postemergence, 500 g ai/ha): 0
- Corn plant response rating (0 = no effect, 100 = complete control) (corn (Zea mays); Preemergence, 125 g ai/ha): 0
- Plant response rating (0 to 100 scale), Corn (corn (Zea mays); Preemergence, 500 g ai/ha): 0
- Plant response rating (0 to 100 scale), Wheat ([7]; Postemergence, 125 g ai/ha): 0
- Plant response rating (0 to 100 scale), Wheat ([7]; Postemergence, 500 g ai/ha): 0
- Wheat plant response rating (0 = no effect, 100 = complete control) ([7]; Preemergence, 125 g ai/ha): 0
- Plant response rating (0 to 100 scale), Wheat ([7]; Preemergence, 500 g ai/ha): 0
- Plant response rating (0 to 100 scale), Pigweed ([8]; Postemergence, 125 g ai/ha): 80
- Plant response rating (0 to 100 scale), Pigweed ([8]; Postemergence, 500 g ai/ha): 100
- Pigweed plant response rating (0 = no effect, 100 = complete control) ([8]; Preemergence, 125 g ai/ha): 40
- Plant response rating (0 to 100 scale), Pigweed ([8]; Preemergence, 500 g ai/ha): 90
- Plant response rating (0 to 100 scale), Barnyardgrass ([9]; Postemergence, 125 g ai/ha): 0
- Plant response rating (0 to 100 scale), Barnyardgrass ([9]; Postemergence, 500 g ai/ha): 0
- Barnyardgrass plant response rating (0 = no effect, 100 = complete control) ([9]; Preemergence, 125 g ai/ha): 0
- Plant response rating (0 to 100 scale), Barnyardgrass ([9]; Preemergence, 500 g ai/ha): 0
- Plant response rating (0 to 100 scale), Morningglory ([10]; Postemergence, 125 g ai/ha): 0
- Plant response rating (0 to 100 scale), Morningglory ([10]; Postemergence, 500 g ai/ha): 0
- Morningglory plant response rating (0 = no effect, 100 = complete control) ([10]; Preemergence, 125 g ai/ha): 0
- Plant response rating (0 to 100 scale), Morningglory ([10]; Preemergence, 500 g ai/ha): 0
- Plant response rating (0 to 100 scale), Velvetleaf ([11]; Postemergence, 125 g ai/ha): 80
- Plant response rating (0 to 100 scale), Velvetleaf ([11]; Postemergence, 500 g ai/ha): 100
- Velvetleaf plant response rating (0 = no effect, 100 = complete control) ([11]; Preemergence, 125 g ai/ha): 0
- Plant response rating (0 to 100 scale), Velvetleaf ([11]; Preemergence, 500 g ai/ha): 40
- Plant response rating (0 to 100 scale), Crabgrass, Large ([12]; Postemergence, 125 g ai/ha): 0
- Plant response rating (0 to 100 scale), Crabgrass, Large ([12]; Postemergence, 500 g ai/ha): 0
- Crabgrass, Large plant response rating (0 = no effect, 100 = complete control) ([12]; Preemergence, 125 g ai/ha): 0
- Plant response rating (0 to 100 scale), Crabgrass, Large ([12]; Preemergence, 500 g ai/ha): 0

SMILES: CCn1cc(C(=O)c2ccccc2)c(-c2cc(Br)cc(Br)c2)n1 [Compound 38]
- Plant response rating (0 to 100), Morningglory ([1]; 62 g ai/ha): 0
- Plant response rating (0 to 100), Morningglory ([1]; 125 g ai/ha): 5
- Plant response rating, Morningglory ([1]; 250 g ai/ha): 5
- Plant response rating (0 to 100), Blackgrass ([2]; 31 g ai/ha): 0
- Plant response rating (0 to 100), Blackgrass ([2]; 62 g ai/ha): 0
- Plant response rating (0 to 100), Blackgrass ([2]; 125 g ai/ha): 0
- Plant response rating, Blackgrass ([2]; 250 g ai/ha): 5
- Plant response rating (0 to 100), Ragweed ([3]; 62 g ai/ha): 10
- Plant response rating (0 to 100), Ragweed ([3]; 125 g ai/ha): 20
- Plant response rating, Ragweed ([3]; 250 g ai/ha): 35
- Plant response rating (0 to 100), Velvetleaf ([4]; 62 g ai/ha): 75
- Plant response rating (0 to 100), Velvetleaf ([4]; 125 g ai/ha): 90
- Plant response rating (0 to 100), Crabgrass, Large ([5]; 31 g ai/ha): 0
- Plant response rating (0 to 100), Crabgrass, Large ([5]; 62 g ai/ha): 0
- Plant response rating (0 to 100), Crabgrass, Large ([5]; 125 g ai/ha): 0
- Plant response rating, Crabgrass, Large ([5]; 250 g ai/ha): 0
- Plant response rating (0 to 100 scale), Foxtail, Giant ([6]; Postemergence, 1000 g ai/ha): 0
- Plant response rating (0 to 100 scale), Foxtail, Giant ([6]; Preemergence, 1000 g ai/ha): 0
- Plant response rating (0 to 100 scale), Corn (corn (Zea mays); Postemergence, 1000 g ai/ha): 0
- Plant response rating (0 to 100 scale), Corn (corn (Zea mays); Preemergence, 1000 g ai/ha): 0
- Plant response rating (0 to 100 scale), Wheat ([7]; Postemergence, 1000 g ai/ha): 0
- Plant response rating (0 to 100 scale), Wheat ([7]; Preemergence, 1000 g ai/ha): 0
- Plant response rating (0 to 100 scale), Pigweed ([8]; Postemergence, 1000 g ai/ha): 100
- Plant response rating (0 to 100 scale), Pigweed ([8]; Preemergence, 1000 g ai/ha): 90
- Plant response rating (0 to 100 scale), Barnyardgrass ([9]; Postemergence, 1000 g ai/ha): 0
- Plant response rating (0 to 100 scale), Barnyardgrass ([9]; Preemergence, 1000 g ai/ha): 0
- Plant response rating (0 to 100 scale), Morningglory ([10]; Preemergence, 1000 g ai/ha): 0
- Plant response rating (0 to 100 scale), Velvetleaf ([11]; Postemergence, 1000 g ai/ha): 90
- Plant response rating (0 to 100 scale), Velvetleaf ([11]; Preemergence, 1000 g ai/ha): 80
- Plant response rating (0 to 100 scale), Crabgrass, Large ([12]; Postemergence, 1000 g ai/ha): 0
- Plant response rating (0 to 100 scale), Crabgrass, Large ([12]; Preemergence, 1000 g ai/ha): 0
